Assay results reported in patent US20250049816A1, “COMPOSITIONS COMPRISING THYMOQUINONE AND VITAMIN D” (N.S. Oils Ltd., priority 2021, published 2025).
Entries after “also recorded” stand apart in the source; their conditions may differ.

Columns and labels:
Assay type in all cases: cell-based, murine
UCP1 = assay: Western blot, UCP1 expression in cultured adipocytes; details: TQ 1 μM, vitamin D3 10 nM, alone or combined; 6 days; relative to β-actin; FIG. 6
Method: (§1) 3T3-L1 murine fibroblasts were obtained from American Type Culture Collection (Rockville, MD, USA). After thawing, cells were resuspended in DMEM, supplemented with 10% heat-inactivated fetal bovine serum (FBS, Invitrogen, Carlsbad, CA, USA) and 1% antibiotic/antimycotic solution (Invitrogen). Culture medium was replaced every 3 days containing 0.25 μM dexamethasone, 10 μg/ml insulin and 0.5 mM 3-isobutyl-1-methylxanthine (Sigma-Aldrich, St. Louis, MO, USA) in DMEM with 10% FBS. Differentiating 3T3-L1 preadipocytes were treated with TQ or Vitamin D3 or combinations thereof for 6 days.
(§2) The cultured adipocytes were homogenized and lysed in RIPA lysis buffer containing protease and phosphatase inhibitors (Complete TM Mini and PhosSTOPTM, Roche Diagnostics, Indianapolis, IN). […] The blots were visualized using an Odyssey Infrared Imaging Scanner (Li-Cor Science Tec) and quantified by densitometric analysis after normalization with β-actin. […]
(§3) The aim of this study was to investigate the effect of a combination of vitamin D3 (10 nM) and TQ (1 μM) on the expression of the UCP1, PGC-1α and Mfn2 genes in cultured adipocytes. […] Following SDS-PAGE separation and western blotting, the three gene products were detected using the appropriate antibodies, and the level of each protein measured, all as described above in the general methods section.

[1] = tested on: differentiated adipocytes (3T3-L1 cells); assay: Oil red O staining, lipid droplet size in differentiated cultured adipocytes; details: 6 days, vs untreated control (C)
Method: as §1
The size of the lipid droplets in differentiated adipocytes (i.e., 3T3-L1 cells prepared as in the previous section) following the various treatments was measured using oil red O staining. Briefly, differentiated adipocytes were washed with phosphate buffered saline (PBS) and fixed in 3.7% formaldehyde for 10 min. Cells were stained with oil red O solution for 30 min at 25° C. Staining was visualized using bright-field microscopy. Lipid droplet size was then measured using Image Pro (advance Imaging Concept, Inc., Princeton, NJ).
The aim of this study was to investigate the effect of combinations of TQ and vitamin D3 on the accumulation of lipids in cultured adipocytes. For the purpose of this investigation, 3T3-L1 murine fibroblasts were grown and differentiated as described hereinabove. The differentiated cultures were then treated for six days with TO, vitamin D3 or combinations thereof. Following this treatment, the size of the accumulated lipid droplets within the cultured cells were assessed using the oil red O staining method described hereinabove.

TNF-α = assay: Western blot, TNF-α levels produced by cultured differentiated 3T3-L1 cells; details: 1 μM TQ alone or 10 nM Vitamin D3 alone, vs untreated control (C), FIG. 9
Method: as §1
as §2, with “IN). Protein samples were separated using 10% sodium dodecyl sulfate-polyacrylamide (SDS) gels and transferred to a nitrocellulose membrane (Bio-Rad, Hercules, CA, USA).” for “IN).”
The levels of TNF-α produced by cultured, differentiated 3T3-L1 cells were measured using specific anti-TNF-α antibodies in a western blot assay, as described hereinabove. […]

Mfn2 = assay: Western blot, Mfn2 expression in cultured adipocytes; details: TQ 1 μM, vitamin D3 10 nM, alone or combined; 6 days; relative to β-actin; vs untreated control (C); FIG. 8
Method: as §1, §2, §3

PGC-1α = assay: Western blot, PGC-1α expression in cultured adipocytes; details: TQ 1 μM, vitamin D3 10 nM, alone or combined; 6 days; relative to β-actin; FIG. 7
Method: as §1, §2, §3

SMILES: CC1=CC(=O)C(C(C)C)=CC1=O [TQ, thymoquinone]
- UCP1 expression (UCP1): statistically significant elevation of UCP1 expression
- average lipid droplet size ([1]; TQ 1 μM, FIG. 1): statistically significant reduction in lipid droplet size
- average lipid droplet size ([1]; TQ 2 μM, FIG. 1): statistically significant reduction in lipid droplet size; also recorded: greater degree of size reduction than that caused by the 1 μM dose; also recorded: greatest effect
- average lipid droplet size ([1]; TQ 4 μM, FIG. 1): statistically significant reduction in lipid droplet size; also recorded: did not cause any further enhancement of this effect; also recorded: greatest effect
- decrease in TNF-α expression (TNF-α): approximately 50%
- Mfn2 expression (Mfn2): statistically significant elevation of Mfn2 expression
- PGC-1α expression (PGC-1α): statistically significant elevation of PGC-1α expression

SMILES: C=C1CC[C@H](O)C/C1=C/C=C1\CCC[C@]2(C)[C@@H]([C@H](C)CCCC(C)C)CC[C@@H]12 [Vitamin D3, cholecalciferol, reference compound]
- UCP1 expression (UCP1): statistically significant elevation of UCP1 expression
- average lipid droplet size ([1]; Vitamin D3 1 nM, FIG. 2): slight reduction in lipid droplet size, this reduction was not statistically significant
- average lipid droplet size ([1]; Vitamin D3 10 nm, FIG. 2): statistically significant reduction in lipid droplet size
- average lipid droplet size ([1]; Vitamin D3 100 nm, FIG. 2): statistically significant reduction in lipid droplet size
- decrease in TNF-α expression (TNF-α): approximately 50%
- Mfn2 expression (Mfn2): statistically significant elevation of Mfn2 expression
- PGC-1α expression (PGC-1α): statistically significant elevation of PGC-1α expression
